# Laboratory results from patent US20240400986A1, “MEMBRANE BOUND COMPOSITIONS AND METHODS RELATING TO SAME” (FLAGSHIP PIONEERING INNOVATIONS VII, LLC, priority 2021, published 2024).
# Peptide text beside a SMILES is read from it. * marks the point of attachment. Cbz = O=C(OCc1ccccc1)*
# Assays:
# [1] = test system: cardiomyocytic cell line derived from human ventricular heart tissue; test: Cell viability in cardiomyocyte compound screen (CellTiter-Glo); assay type: cell-based; conditions: human, 24 h
# From the text: Cells were stained with Hoechst 34580, CellTracker Green/CellMask Green Actin and MitoTracker Deep Red to detect nuclear material, cytoplasm/F-actin, and mitochondria, respectively, and cultured in poly-L-lysine-coated 96-well glass bottom plates at 15,800 cells/cm^2 and allowed to adhere overnight. For the screening, a total of 100 randomly organized compounds (TargetMol) were divided in 5 groups. Each group included an untreated condition, a vehicular DMSO control, and a known high-gigasome producing condition to comparatively study gigasome production rates. As a cell death control group, 500 nM Staurosporine was added to induce apoptosis. Cultures were incubated for 24 hours under gigasome inducing conditions at concentrations ranging between 10 nM and 10,000 nM. […] Cells remaining in the 96-well plates were assessed for viability using CellTiter-Glo (Promega).
# [2] = test system: neuronal cells; test: Gigasome-mediated extraction of APP-CTFs upon γ-secretase and proteasome inhibition (fixed plates, confocal); assay type: cell-based, human
# Experimental: Cells were treated with the γ-secretase inhibitor L-685,458 at 5 μM, either alone or in combination with the proteasome inhibitor MG-132 at 0.1 μM. A vehicular control amount of DMSO was added to the media to comparatively study cargo signals within cells and gigasomes. Treatments were carried out in reduced serum-containing media (3% FBS) for 24 hours. Disease-related cargo presence within cells and in gigasomes was characterized and quantified by confocal microscopy analysis of 4% paraformaldehyde fixed cells, following (immuno)fluorescent labeling of cytosolic, nuclear and cargo-specific protein markers. In some experiments β-III tubulin and Alexa Fluor® 488 phalloidin were used to mark the cytosol and proximal plasma membrane, respectively. To detect APP-CTFs, an antibody against the C-terminus of APP (C-APP) was used (see Table 12). Non-specific labeling was blocked by incubation with 5% normal goat serum in PBS in the presence of 0.05% saponin, for 1 h at room temperature. Primary antibodies were incubated overnight at 4° C., followed by incubation with Alexa Fluor®-conjugated secondary antibodies for 1 hour at room temperature. Nuclei were counterstained with DAPI.
# A range of 5-8 images per well were taken from replicate experiments to capture a final total range of 150-200 cells. […] The cellular cargo fluorescence intensity in the red channel was quantified by subtracting the background signal from each image, using the ImageJ built-in “subtract background” function with a default rolling ball radius of 50 pixel. The cargo signal (integrated density) in the red channel was measured and normalized to the number of nuclei counted in each field. […]
# For particle analysis, the cytosolic and F-actin/membrane signals were merged into single RGB image, converted to grayscale and then thresholded to create a cellular mask of objects in the field of view, as calculated by the “Li” autothreshold algorithm. […] The quantity or distribution of objects obtained from the particle analysis was divided by the number of cells counted in each field to obtain a normalized quantity or distribution.
# [3] = test system: neuronal cells; test: Gigasome-mediated extraction of stress granule-associated protein HuR (fixed plates, confocal); assay type: cell-based, human
# Experimental: For this paradigm, cells were treated with a low sodium arsenite concentration of 5 μM either alone or in combination with the proteasome inhibitor MG-132 at 0.2 μM. A vehicular control amount of DMSO was added to the media to comparatively study cargo signals within cells and gigasomes. Treatments were carried out in reduced serum-containing media for 24 hours to mimic a chronic exposure to arsenite. The presence of the stress-granule-related cargo within cells and in gigasomes was characterized and quantified by confocal microscopy analysis of 4% paraformaldehyde. Non-specific labeling was blocked by incubation with 5% normal goat serum in PBS in the presence of 0.1% Triton X-100, for 2 h at room temperature, followed by immunolabeling with an antibody against the RNA-binding protein HuR (see Table 12) and incubation with Alexa Fluor® 568 secondary antibodies. Phalloidin Alexa Fluor® 488 was used to mark the proximal plasma membrane. Nuclei were counterstained with DAPI.
# Images were captured using a Zeiss LSM 900 confocal microscope and a 40× objective. For analysis, 10×16-bit images per well were processed to obtain a final total range of 75-200 cells. Composite images were separated in the different channels. The background was subtracted from the red cargo-related channel, as described in Example 13a. The nuclear signal in the blue channel was thresholded using the “Yen” autothreshold algorithm. To measure the nuclear-to-cytosolic translocation of the stress-granule-related protein cargo upon treatment, firstly, the cargo-related nuclear signal was subtracted from the respective red channel image by creating a nuclear selection from the thresholded blue channel image, which was added to ImageJ Manager. The nuclear selection was then transferred to the background-subtracted red channel and the nuclear cargo signal was removed from the image leaving only the cytosolic signal. The cleared red channel image was thresholded using the “default” autothreshold algorithm for downstream particle analysis. To measure the cytosolic cargo signal, a cellular mask was then generated by thresholding the Green/F-actin channel using the “Li” autothreshold method. A cytosolic selection was created, added to ImageJ Manager, and transferred to the background subtracted, nuclear-cleared red channel image. The cytosolic cargo signal (integrated density) was measured and normalized to the number of nuclei counted in each field. Particle analysis was performed as described in Example 13a, using the thresholded green channel to identify particles of interest by filtering by area and circularity and re-directing to the blue and red channel for absence of nuclear signal and eventual presence of disease-related cargo, respectively. The quantity or distribution of objects obtained from the particle analysis was obtained as described in Example 13a.
# [4] = test system: neuronal cell line derived from human neuroblastoma; conditions: neuronal cells, dose 100 nM, 24 hours
# [5] = test system: cardiomyocytic cell line derived from human ventricular heart tissue; test: Small molecule compound screen of gigasome production in cardiomyocytic monocultures; conditions: for Number of Gigasomes Produced: Table 22, cardiomyocytes, 24 hours;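 on all read-outs here: gigasomes shed into the culture medium were imaged by confocal microscopy and counted as round particles lacking nuclear signal, extrapolated to the whole well, fold change is relative to DMSO vehicle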
# Experimental: For the screening, a total of 100 randomly organized compounds (TargetMol) were divided in 5 groups. Each group included an untreated condition, a vehicular DMSO control, and a known high-gigasome producing condition to comparatively study gigasome production rates. As a cell death control group, 500 nM Staurosporine was added to induce apoptosis. Cultures were incubated for 24 hours under gigasome inducing conditions at concentrations ranging between 10 nM and 10,000 nM. […] The Zeiss ZEN Blue software was used to distribute imaging fields of view (positions) to create an unbiased imaging sample of a well. 5 images were taken using a Zeiss LSM 900 confocal microscope. […] The BioApps ZEN software package was used to perform cell nucleus segmentation and counting. After 24 hours, gigasomes were harvested from the cell culture media by gently removing from the top of each 96-well ⅔ of the total volume without disturbing the cell layer (containing the settled gigasomes) and by adding to each well the same amount of PBS containing 0.5 mM EDTA. The wells were washed twice gently, and the gigasome-containing media/0.5 mM EDTA PBS wash was transferred into the well of a 384-well glass bottom plate. Cells remaining in the 96-well plates were assessed for viability using CellTiter-Glo (Promega).
# For gigasome analysis in 384-well plates, the Zeiss ZEN Blue software was used to distribute positions to create an unbiased imaging sample of a well. 6 images per well were taken using a Zeiss LSM 900 confocal microscope. […] A watershed binary segmentation step was performed to separate grouped objects. For each particle in the mask, characteristic parameters of the particle were calculated and saved. […] Particles of interest were identified by thresholding by area and circularity. […] Circularity, defined by the formula 4pi(area/perimeter^2, was set to be between 0.8, where a value of 1.0 is a perfect circle, and a value of 0 is a line. Gigasomes were identified from the particles of interest by thresholding by mean nuclear signal. The nuclear signal threshold was set using a value equal to one quarter of a threshold value calculated by the Li auto-threshold algorithm applied to the distribution of all particles of interest. Particles of interest with nuclear signal below this value were considered “negative” for nuclear material and were identified as gigasomes. A sampling factor was calculated to extrapolate the total quantity of a type of object (particles, particles of interest, gigasomes) in the well. The sampling factor was the percentage of the well's area that was imaged. […] In some experiments, the number of cells in the cell cultures were estimated with a cell counter. […] The normalized quantity or distribution of objects was described as a quantity or distribution of objects per 1000 cells.
# [6] = test system: neuronal cell line derived from human neuroblastoma; test: Small molecule compound screen of gigasome production in neuronal monocultures
# [7] = Homo sapiens, Cardiomyocyte, 24 h, read-out: Fold Change of Gigasomes Produced vs. DMSO
smiles,measurement,setting,value
"CC(C)C[C@@H](C=O)NC(=O)[C@H](CC(C)C)NC(=O)[C@H](CC(C)C)NC(=O)OCc1ccccc1 [MG-132, reference compound] (Cbz-Leu-Leu-Leu-aldehyde)",Viability,[1]; 10 nM,100%
same,Viability,[1]; 100 nM,50-75%
same,C-APP+ve particle intensity distribution (gigasome diameter and brightness),[2]; compared to γ-secretase inhibitor and DMSO conditions (FIG. 6D),larger in diameter and brighter
same,intracellular APP-CTF levels (C-APP immunoreactivity),"[2]; γ-secretase inhibitor 5 μM, MG-132 0.1 μM, alone or combined, 24 h, compared to DMSO",does not increase
same,HuR cytosolic signal,"[3]; 5 μM sodium arsenite, 0.2 μM MG-132, alone or combined, 24 h, compared to DMSO (FIG. 7B)",increased
same,HuR+ve particle intensity distribution (gigasome diameter and brightness),[3]; FIG. 7E,larger in diameter and brighter
same,HuR average intensity within gigasomes,[3]; compared to sodium arsenite alone and DMSO (FIG. 7D),higher
same,Viability,[4],50-75%
same,fold induction at 0.01 µM,[5]; [7],1.5 to 1.75
same,fold induction at 0.1 µM,[5]; [7],> 4
same,Number of Gigasomes Produced,[5]; dose 10 nM,150-175
same,Number of Gigasomes Produced,[5]; dose 100 nM,>400
same,fold induction at 0.1 µM,"[6]; Homo sapiens, 24 h, read-out: Fold Change of Gigasomes Produced vs. DMSO",1.5 to 1.75
same,Number of Gigasomes Produced,"[6]; neuronal cells, dose 100 nM, 24 hours",55-65
